# Experimental data: the supplement of paper PMC11061612
# Columns and labels:
# [1] = system: ACHN (Kidney Carcinoma); test: Bliss excess, mean over the matrix (fraction); higher = more synergy
# How it was run: (§1)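 After 24 hours at 37°C and 5% CO2 in 1536-well plates, cells in DMEM/F12 or RPMI plus 10% FBS received two-drug dose matrices for 72 hours. Viability came from CellTiter-Glo 2.0 luminescence and was scaled as inhibition, anchored at 0 by vehicle wells and at 1 by blank wells. Combination Emax is taken as the second-highest inhibition in the matrix, and Bliss excess as the observed combination effect less EA + EB − EA·EB, with EA and EB the single-agent effects.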
# [2] = system: Ca9-22 (Head and Neck Carcinoma); test: as above
# How it was run: as §1
# [3] = system: Caov-4 (Ovarian Carcinoma); test: as above
# How it was run: as §1
# [4] = system: D-263MG (Glioblastoma); test: as above
# How it was run: as §1
# [5] = system: EFM-19 (Breast Carcinoma); test: as above
# How it was run: as §1
# [6] = system: EoL-1-cell (Acute Myeloid Leukemia); test: as above
# How it was run: as §1
# [7] = system: Hs-766T (Pancreatic Carcinoma); test: as above
# How it was run: as §1
# [8] = system: KARPAS-299 (T-Cell Non-Hodgkin's Lymphoma); test: as above
# How it was run: as §1
# [9] = system: MIA-PaCa-2 (Pancreatic Carcinoma); test: as above
# How it was run: as §1
# [10] = system: MLMA (Other Blood Carcinomas); test: as above
# How it was run: as §1
# [11] = system: NB69 (Neuroblastoma); test: as above
# How it was run: as §1
# [12] = system: NCI-H358 (Lung Adenocarcinoma); test: as above
# How it was run: as §1
# [13] = system: PANC-04-03 (Pancreatic Carcinoma); test: as above
# How it was run: as §1
# [14] = system: TGW (Neuroblastoma); test: as above
# How it was run: as §1
# [15] = system: TK10 (Kidney Carcinoma); test: as above
# How it was run: as §1
# [16] = system: ACHN (Kidney Carcinoma); test: combination Emax (second highest fraction inhibited in the dose matrix, 72 h); higher = more inhibition; extreme values may be limits of the assay
# How it was run: as §1
# [17] = system: EW-24 (Ewing's Sarcoma); test: as above
# How it was run: as §1
# [18] = system: KYSE-450 (Esophageal Squamous Cell Carcinoma); test: as above
# How it was run: as §1
# [19] = system: PANC-04-03 (Pancreatic Carcinoma); test: as above
# How it was run: as §1
# [20] = system: RF-48 (B-Cell Non-Hodgkin's Lymphoma); test: as above
# How it was run: as §1
# 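For Bliss excess, mean over the matrix in this document: after 72 h of two-drug dosing.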
SMILES,Bliss excess [1],Bliss excess [2],Bliss excess [3],Bliss excess [4],Bliss excess [5],Bliss excess [6],Bliss excess [7],Bliss excess [8],Bliss excess [9],Bliss excess [10],Bliss excess [11],Bliss excess [12],Bliss excess [13],Bliss excess [14],Bliss excess [15],combination Emax [16],combination Emax [17],combination Emax [18],combination Emax [19],combination Emax [20]
"N#Cc1cnc(Nc2cc(NC[C@H]3CNCCO3)c(C(F)(F)F)cn2)cn1 [SRA737] + O=c1[nH]cc(F)c(=O)[nH]1 [5-Fluorouracil] (first compound max 10 µM, 7x7, partner max 20 µM)",-0.0547,0.0135,-0.0494,-0.0456,0.0189,-0.0084,0.0415,0.0529,-0.0352,-0.0455,-0.0068,-0.0743,0.0102,-0.0389,-0.0549,0.781,0.585,0.379,0.474,0.566
"N#Cc1cnc(Nc2cc(NC[C@H]3CNCCO3)c(C(F)(F)F)cn2)cn1 [SRA737] + CCc1c2c(nc3ccc(O)cc13)-c1cc3c(c(=O)n1C2)COC(=O)[C@]3(O)CC [SN-38] (first compound max 10 µM, 7x7, partner max 0.3 µM)",-0.0867,0.0252,-0.0488,0.0777,0.107,-0.0375,-0.0095,0.0148,0.0599,-0.061,-0.0351,0.0057,-0.0583,0.0191,0.0241,0.893,0.768,0.94,0.57,0.769
"CN(CCO)CC[C@H](CSc1ccccc1)Nc1ccc(S(=O)(=O)NC(=O)c2ccc(N3CCC([C@@H](O)c4ccccc4-c4ccc(Cl)cc4)CC3)cc2)cc1S(=O)(=O)C(F)(F)F [AZD4320] + CCN(CCO)CCCOc1ccc2c(Nc3cc(CC(=O)Nc4cccc(F)c4)[nH]n3)ncnc2c1 [AZD2811] (first compound max 1 µM, 7x7, partner max 1 µM)",0.0089,0.0591,-0.0141,0.0665,0.147,-0.002,-0.0485,0.0104,0.0532,0.0437,-0.0077,-0.0337,-0.0435,-0.032,-0.0199,0.207,0.865,0.153,0.138,0.881
